In brackets after ≈: the same amount, converted by molar mass. Where two headings read alike, the source gives them in different places. Positions of bridges follow the written chain, without caps; N, C: chain ends. Non-standard residues stand in square brackets, D forms with d. Residues, ends and D or L forms follow the SMILES beside them. Phe(3,4-Cl2) = N[C@@H](Cc1ccc(Cl)c(Cl)c1)C(=O)O; Lys(N3) = [N-]=[N+]=NCCCC[C@H](N)C(=O)O; R8 = C=CCCCCCC[C@@](C)(N)C(=O)O; Cba = N[C@@H](CC1CCC1)C(=O)O; S5 = C=CCCC[C@](C)(N)C(=O)O; βAla = NCCC(=O)O; Sar = CNCC(=O)O
Assays:
in vitro = experiment: in vitro
In short: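 Azido-peptide permeability was read as loss of NanoBRET signal (donor 450 nm, acceptor 610 nm) after adding NanoBret618-azide at 10 μM final.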

[1] = Lactate dehydrogenase (LDH) release assay; format: cell-based
In short: (§1)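 Geometric means of at least three independent biological runs are given for LDH release measured in HCT116 cells stably expressing a p53-driven β-lactamase reporter. Plating density was 8000 cells/well; DMSO in wells was 0.5%.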

HCT116 cells = experiment: Lactate dehydrogenase (LDH) release assay; format: cell-based
In short: as §1

[2] = Experimental LogD (partition coefficient); settings: for logD: Partition Coeff LogD
[3] = Solubility assay (kinetic solubility, PBS pH 7); format: physicochemical; settings: pH 7, PBS; for solubility kinetic: pH 7, aqueous buffer, kinetic from dmso stock, read-out: Solubility
In short: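 Values derive from peak-area ratios of sample versus a 100 µM standard, scaled by that standard's concentration.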

[4] = Nanoclick permeability assay EC50
[5] = 0% FBS 4Hr, read-out: LDH: Cytotoxicity assay: EC50
[6] = 10% FBS 4Hr, read-out: LDH: Cytotoxicity assay: EC50

Compound	cell entry EC50 (in vitro; [4]) [µM]	EC50 ([1]; LDH: Cytotoxicity assay: EC50) [µM]	LDH: Cytotoxicity assay: % Effect (HCT116 cells) [%]	logD ([2]; not stated)	solubility kinetic [3] [µM]	EPSA (physchem) [A^2]	cell entry EC50 (in vitro) [µM]	EC50 [1, 5] [µM]	EC50 [1, 6] [µM]	EC50 ([1]; 10% FBS 16Hr, read-out: LDH: Cytotoxicity assay: EC50) [µM]	LDH: Cytotoxicity assay: % Effect (HCT116 cells; 0% FBS 4Hr) [%]	LDH: Cytotoxicity assay: % Effect (HCT116 cells; 10% FBS 4Hr) [%]	LDH: Cytotoxicity assay: % Effect (HCT116 cells; 10% FBS 16Hr) [%]	logD ([2]; experimental)	Partition Coeff LogD [2]	Solubility [3]	LDH: Cytotoxicity assay: % Effect (HCT116 cells; 0% FBS 16Hr) [%]
CC(=O)N[C@@H](CCCCN=[N+]=[N-])C(=O)NCCC(=O)NCC(=O)N[C@H](C(=O)N[C@@H](Cc1ccccc1)C(=O)N[C@]1(C)CCCCCCC=CCCC[C@@](C)(C(=O)N[C@@H](CO)C(=O)N[C@@H](C)C(=O)N[C@@H](C)C(N)=O)NC(=O)[C@H](CC2CCC2)NC(=O)[C@H](CCC(N)=O)NC(=O)[C@H](C)NC(=O)[C@H](Cc2c[nH]c3ccccc23)NC(=O)[C@H](Cc2ccc(O)cc2)NC(=O)[C@H](CCC(=O)O)NC1=O)[C@@H](C)O [MP-261] (Ac-[Lys(N3)][βAla]GTF[R8]EYWAQ[Cba][S5]SAA-NH2; staple 6-13)	0.273	> 50.6	8.826	2.62	89 (≈ 170 µg/mL)	222	–	–	–	–	–	–	–	–	–	–	–
CC(=O)N[C@@H](CCCCN=[N+]=[N-])C(=O)NCCC(=O)N[C@@H](CC(C)C)C(=O)N[C@H](C(=O)N[C@@H](Cc1ccccc1)C(=O)N[C@]1(C)CCCCCCC=CCCC[C@@](C)(C(N)=O)NC(=O)[C@H](CC2CCC2)NC(=O)[C@H](CCC(N)=O)NC(=O)[C@H](C)NC(=O)[C@H](Cc2c[nH]c3ccccc23)NC(=O)[C@H](Cc2ccc(O)cc2)NC(=O)[C@H](CCC(=O)O)NC1=O)[C@@H](C)O [MP-326] (Ac-[Lys(N3)][βAla]LTF[R8]EYWAQ[Cba][S5]-NH2; staple 6-13)	0.215	24.8	7.44	2.88	3 (≈ 5.22 µg/mL)	222	–	–	–	–	–	–	–	–	–	–	–
CC(=O)N[C@@H](CCCCN=[N+]=[N-])C(=O)NCCC(=O)N[C@@H](C)C(=O)N[C@H](C(=O)N[C@@H](Cc1ccccc1)C(=O)N[C@]1(C)CCCCCCC=CCCC[C@@](C)(C(=O)N[C@@H](C)C(=O)N[C@@H](C)C(=O)N[C@@H](C)C(N)=O)NC(=O)[C@H](CC2CCC2)NC(=O)[C@H](C)NC(=O)[C@H](C)NC(=O)[C@H](Cc2c[nH]c3ccccc23)NC(=O)[C@H](Cc2ccc(O)cc2)NC(=O)[C@H](C)NC1=O)[C@@H](C)O [MP-350, Azide-ATSP-7041 (L1A, E5A, Q9A, S12A)] (Ac-[Lys(N3)][βAla]ATF[R8]AYWAA[Cba][S5]AAA-NH2; staple 6-13)	–	–	–	3.37	2 (≈ 3.59 µg/mL)	196	0.695	> 50.7	> 50	> 50.7	-5.38	108.5	-2.204	3.37	–	–	–
CC(=O)N[C@@H](CCCCN=[N+]=[N-])C(=O)NCCC(=O)N[C@@H](CC(C)C)C(=O)N[C@H](C(=O)N[C@@H](Cc1ccccc1)C(=O)N[C@]1(C)CCCCCCC=CCCC[C@@](C)(C(=O)N[C@@H](CO)C(=O)N[C@@H](C)C(=O)N[C@@H](C)C(N)=O)NC(=O)[C@H](CC2CCC2)NC(=O)[C@H](CCC(N)=O)NC(=O)CN(C)C(=O)[C@H](Cc2c[nH]c3ccccc23)NC(=O)[C@H](Cc2ccc(O)cc2)NC(=O)[C@H](CCC(=O)O)NC1=O)[C@@H](C)O [MP-351] (Ac-[Lys(N3)][βAla]LTF[R8]EYW[Sar]Q[Cba][S5]SAA-NH2; staple 6-13)	> 10	> 50	-3.92	2.26	29 (≈ 57.1 µg/mL)	193	–	–	–	–	–	–	–	–	–	–	–
CC(=O)N[C@@H](CCCCN=[N+]=[N-])C(=O)N[C@@H](CO)C(=O)NCC(=O)N[C@@H](CO)C(=O)N[C@@H](CC(C)C)C(=O)N[C@H](C(=O)N[C@@H](Cc1ccccc1)C(=O)N[C@]1(C)CCCCCCC=CCCC[C@@](C)(C(=O)N[C@@H](CO)C(=O)N[C@@H](C)C(=O)N[C@@H](C)C(N)=O)NC(=O)[C@H](CC2CCC2)NC(=O)[C@H](CCC(N)=O)NC(=O)[C@H](C)NC(=O)[C@H](Cc2c[nH]c3ccccc23)NC(=O)[C@H](Cc2ccc(O)cc2)NC(=O)[C@H](CCC(=O)O)NC1=O)[C@@H](C)O [MP-619]	0.63	> 50.6	11.42	2.67	110 (≈ 235 µg/mL)	227	–	–	–	–	–	–	–	–	–	–	–
CC(=O)N[C@@H](CCCCN=[N+]=[N-])C(=O)NCCC(=O)N[C@@H](CO)C(=O)N[C@H](C(=O)N[C@@H](Cc1ccccc1)C(=O)N[C@]1(C)CCCCCCC=CCCC[C@@](C)(C(=O)N[C@@H](CO)C(=O)N[C@@H](CO)C(=O)N[C@@H](CO)C(N)=O)NC(=O)[C@H](CC2CCC2)NC(=O)[C@H](CCC(N)=O)NC(=O)[C@H](CO)NC(=O)[C@H](Cc2c[nH]c3ccccc23)NC(=O)[C@H](Cc2ccc(O)cc2)NC(=O)[C@H](CO)NC1=O)[C@@H](C)O [MP-667] (Ac-[Lys(N3)][βAla]STF[R8]SYWSQ[Cba][S5]SSS-NH2; staple 6-13)	2.23	> 50.6	2.286	2.5	2 (≈ 3.9 µg/mL)	208	–	–	–	–	–	–	–	–	–	–	–
CC(=O)N[C@@H](CCCCN=[N+]=[N-])C(=O)NCCC(=O)NCC(=O)N[C@H](C(=O)N[C@@H](Cc1ccccc1)C(=O)N[C@]1(C)CCCCCCC=CCCC[C@@](C)(C(=O)N[C@@H](CO)C(=O)N[C@@H](C)C(=O)N[C@@H](C)C(N)=O)NC(=O)[C@H](CC2CCC2)NC(=O)[C@H](CCC(N)=O)NC(=O)CNC(=O)[C@H](Cc2c[nH]c3ccccc23)NC(=O)[C@H](Cc2ccc(O)cc2)NC(=O)CNC1=O)[C@@H](C)O [MP-692] (Ac-[Lys(N3)][βAla]GTF[R8]GYWGQ[Cba][S5]SAA-NH2; staple 6-13)	1.39	> 50.6	2.18	2.73	2 (≈ 3.66 µg/mL)	200	–	–	–	–	–	–	–	–	–	–	–
CC(=O)N[C@@H](CCCCN=[N+]=[N-])C(=O)NCCC(=O)N[C@@H](CC(C)C)C(=O)N[C@H](C(=O)N[C@@H](Cc1ccccc1)C(=O)N[C@]1(C)CCCCCCC=CCCC[C@@](C)(C(=O)N[C@@H](CO)C(=O)N[C@@H](C)C(=O)N[C@@H](C)C(N)=O)NC(=O)[C@H](CC2CCC2)NC(=O)[C@H](CCC(N)=O)NC(=O)[C@H](CC(C)C)NC(=O)[C@H](Cc2c[nH]c3ccccc23)NC(=O)[C@H](Cc2ccc(O)cc2)NC(=O)[C@H](CC(C)C)NC1=O)[C@@H](C)O [MP-693, AZIDE-ATSP-7041 (E5L, A8L)] (Ac-[Lys(N3)][βAla]LTF[R8]LYWLQ[Cba][S5]SAA-NH2; staple 6-13)	–	–	–	4.68	< 1	196	0.29	> 50.6	> 50	–	-2.781	12.6	–	2.92	–	–	–
CC(=O)N[C@@H](CCCCN=[N+]=[N-])C(=O)NCCC(=O)N[C@@H](CC(C)C)C(=O)N[C@H](C(=O)N[C@@H](Cc1ccccc1)C(=O)N[C@]1(C)CCCCCCC=CCCC[C@@](C)(C(=O)N[C@@H](CO)C(=O)N[C@@H](C)C(=O)N[C@@H](C)C(N)=O)NC(=O)[C@H](CC2CCC2)NC(=O)[C@H](CCC(N)=O)NC(=O)[C@H](C)NC(=O)[C@H](Cc2ccc(Cl)c(Cl)c2)NC(=O)[C@H](Cc2ccc(O)cc2)NC(=O)[C@H](CCC(=O)O)NC1=O)[C@@H](C)O [MP-765] (Ac-[Lys(N3)][βAla]LTF[R8]EY[Phe(3,4-Cl2)]AQ[Cba][S5]SAA-NH2; staple 6-13)	1.83	> 50.6	2.873	–	–	199	–	–	–	–	–	–	–	–	Poorly Behaved	Poorly Behaved	–
CC(=O)N[C@@H](CCCCN=[N+]=[N-])C(=O)NCCC(=O)N[C@@H](CC(C)C)C(=O)N[C@H](C(=O)N[C@@H](CC1CCC1)C(=O)N[C@]1(C)CCCCCCC=CCCC[C@@](C)(C(=O)N[C@@H](CO)C(=O)N[C@@H](C)C(=O)N[C@@H](C)C(N)=O)NC(=O)[C@H](Cc2c[nH]c3ccccc23)NC(=O)[C@H](CCC(N)=O)NC(=O)[C@H](C)NC(=O)[C@H](Cc2ccccc2)NC(=O)[C@H](Cc2ccc(O)cc2)NC(=O)[C@H](CCC(=O)O)NC1=O)[C@@H](C)O [MP-791] (Ac-[Lys(N3)][βAla]LT[Cba][R8]EYFAQW[S5]SAA-NH2; staple 6-13)	> 10	34.6	45.16	1.34	28 (≈ 55.2 µg/mL)	197	–	–	–	–	–	–	–	–	–	–	–
CC(=O)N[C@@H](CCCCN=[N+]=[N-])C(=O)NCCC(=O)N[C@@H](CC(C)C)C(=O)N[C@H](C(=O)N[C@@H](Cc1ccccc1)C(=O)N[C@]1(C)CCCCCCC=CCCC[C@@](C)(C(=O)NCC(=O)N[C@@H](C)C(=O)N[C@@H](C)C(N)=O)NC(=O)[C@H](CC2CCC2)NC(=O)[C@H](CCC(N)=O)NC(=O)[C@H](C)NC(=O)[C@H](Cc2c[nH]c3ccccc23)NC(=O)[C@H](Cc2ccc(O)cc2)NC(=O)[C@H](CCC(=O)O)NC1=O)[C@@H](C)O [MP-798] (Ac-[Lys(N3)][βAla]LTF[R8]EYWAQ[Cba][S5]GAA-NH2; staple 6-13)	–	–	–	2.79	80 (≈ 155 µg/mL)	212	0.0829	> 50.6	> 50	–	16.01	16.43	–	–	–	–	1.68
